The subject of test [1] is consortium of bacteria: mixture of Pseudomonas aeruginosa, Klebsiella pneumoniae, Staphylococcus aureus, and Bacillus subtilis. Kind of test: Growth inhibition assay (microtiter plate-based synergy assay). In kind it is cell-based. Conditions: 24 h; for I90 value (minimum concentration in which growth of the consortium is at least 90% less than controls): single active alone.

Assay in test [2]: as above
The format is cell-based. Conditions: 24 h.

Where two headings read alike, the source gives them in different places.

As to `CCCCn1sc2ccccc2c1=O` [BBIT, N-butyl-1,2-benzisothiazolin-3-one], the “% Inhibition of growth by BBIT” value was 32% in test [1] (BBIT 6.25 mg/l alone), 24% in test [1] (BBIT 12.5 mg/l alone) and 49% in test [1] (BBIT 25.0 mg/l alone). The “I90 value (minimum concentration in which growth of the consortium is at least 90% less than controls)” value in test [1] came to 50.0 mg/L.

Take `O=c1[nH]sc2ccccc12` [BIT, 1,2-benzisothiazolin-3-one]: the “% Inhibition of growth by BIT” value was 17% in test [1] (BIT 3.91 mg/l alone) and 46% in test [1] (BIT 7.81 mg/l alone). Besides, in test [1], the “I90 value (minimum concentration in which growth of the consortium is at least 90% less than controls)” value was 15.63 mg/L.

On to `Cn1sc(Cl)cc1=O` [CMIT, 5-chloro-2-methyl-4-isothiazolin-3-one], for which, in test [1], the “I90 value (minimum concentration in which growth of the consortium is at least 90% less than controls)” value came out at 0.78 mg/L. Moreover, the inhibition at 0.39 µg/mL in test [2] (CMIT 0.39 mg/l alone, read-out: % Inhibition of growth by CMIT) stood at 10%. For the same compound, the inhibition at 0.78 µg/mL in test [2] (CMIT 0.78 mg/l alone, read-out: % Inhibition of growth by CMIT) is 97%. For the same compound, in test [2] (CMIT 1.56 mg/l alone, read-out: % Inhibition of growth by CMIT), the inhibition at 1.56 µg/mL was determined as 96%. In addition, the inhibition at 3.13 µg/mL in test [2] (CMIT 3.13 mg/l alone, read-out: % Inhibition of growth by CMIT) stood at 98%. The inhibition at 6.25 µg/mL in test [2] (CMIT 6.25 mg/l alone, read-out: % Inhibition of growth by CMIT) was 97%. For the same compound, the inhibition at 12.5 µg/mL in test [2] (CMIT 12.5 mg/l alone, read-out: % Inhibition of growth by CMIT) came to 96%. For the same compound, in test [2] (CMIT 25.0 mg/l alone, read-out: % Inhibition of growth by CMIT), the inhibition at 25 µg/mL was found to be 98%.

As to `NC(=O)C(Br)(Br)C(N)=O` [DBMAL, 2,2-dibromomalonamide], the inhibition at 0.39 µg/mL in test [2] (Table 2, DBMAL 0.39 mg/l alone, read-out: % Inhibition of growth by DBMAL) came out at 11%; in test [2] (Table 4, DBMAL 0.39 mg/l alone, read-out: % Inhibition of growth by DBMAL) it was 6%; in test [2] (Table 6, DBMAL 0.39 mg/l alone, read-out: % Inhibition of growth by DBMAL), 0%; in test [2] (Table 8, DBMAL 0.39 mg/l alone, read-out: % Inhibition of growth by DBMAL), 3%; in test [2] (Table 10, DBMAL 0.39 mg/l alone, read-out: % Inhibition of growth by DBMAL) it was 3%; in test [2] (Table 12, DBMAL 0.39 mg/l alone, read-out: % Inhibition of growth by DBMAL) it was 3%. Also, the inhibition at 0.39 µg/mL in test [2] (Table 14, DBMAL 0.39 mg/l alone, read-out: % Inhibition of growth by DBMAL) worked out at 3%. Also, the inhibition at 0.78 µg/mL in test [2] (Table 2, DBMAL 0.78 mg/l alone, read-out: % Inhibition of growth by DBMAL) is 13%; in test [2] (Table 4, DBMAL 0.78 mg/l alone, read-out: % Inhibition of growth by DBMAL), 2%; in test [2] (Table 6, DBMAL 0.78 mg/l alone, read-out: % Inhibition of growth by DBMAL) it was 6%; in test [2] (Table 8, DBMAL 0.78 mg/l alone, read-out: % Inhibition of growth by DBMAL), 1%; in test [2] (Table 10, DBMAL 0.78 mg/l alone, read-out: % Inhibition of growth by DBMAL) it was 0%; in test [2] (Table 12, DBMAL 0.78 mg/l alone, read-out: % Inhibition of growth by DBMAL), 0%. In addition, in test [2] (Table 14, DBMAL 0.78 mg/l alone, read-out: % Inhibition of growth by DBMAL), the inhibition at 0.78 µg/mL was found to be 0%. The inhibition at 1.56 µg/mL in test [2] (Table 2, DBMAL 1.56 mg/l alone, read-out: % Inhibition of growth by DBMAL) came to 15%; in test [2] (Table 4, DBMAL 1.56 mg/l alone, read-out: % Inhibition of growth by DBMAL) it was 1%; in test [2] (Table 8, DBMAL 1.56 mg/l alone, read-out: % Inhibition of growth by DBMAL), 0%; in test [2] (Table 10, DBMAL 1.56 mg/l alone, read-out: % Inhibition of growth by DBMAL), 1%; in test [2] (Table 12, DBMAL 1.56 mg/l alone, read-out: % Inhibition of growth by DBMAL) it was 1%; in test [2] (Table 14, DBMAL 1.56 mg/l alone, read-out: % Inhibition of growth by DBMAL), 0%. Further, the inhibition at 3.13 µg/mL stood at 23% in test [2] (Table 2, DBMAL 3.13 mg/l alone, read-out: % Inhibition of growth by DBMAL); 11% in test [2] (Table 6, DBMAL 3.13 mg/l alone, read-out: % Inhibition of growth by DBMAL); 8% in test [2] (Table 8, DBMAL 3.13 mg/l alone, read-out: % Inhibition of growth by DBMAL); 0% in test [2] (Table 10, DBMAL 3.13 mg/l alone, read-out: % Inhibition of growth by DBMAL); 0% in test [2] (Table 12, DBMAL 3.13 mg/l alone, read-out: % Inhibition of growth by DBMAL); 0% in test [2] (Table 14, DBMAL 3.13 mg/l alone, read-out: % Inhibition of growth by DBMAL). Also, the inhibition at 6.25 µg/mL was found to be 0% in test [2] (Table 2, DBMAL 6.25 mg/l alone, read-out: % Inhibition of growth by DBMAL); 23% in test [2] (Table 4, DBMAL 6.25 mg/l alone, read-out: % Inhibition of growth by DBMAL); 28% in test [2] (Table 6, DBMAL 6.25 mg/l alone, read-out: % Inhibition of growth by DBMAL); 45% in test [2] (Table 8, DBMAL 6.25 mg/l alone, read-out: % Inhibition of growth by DBMAL); 44% in test [2] (Table 10, DBMAL 6.25 mg/l alone, read-out: % Inhibition of growth by DBMAL); 44% in test [2] (Table 12, DBMAL 6.25 mg/l alone, read-out: % Inhibition of growth by DBMAL). The inhibition at 6.25 µg/mL in test [2] (Table 14, DBMAL 6.25 mg/l alone, read-out: % Inhibition of growth by DBMAL) is 34%. Also, the inhibition at 12.5 µg/mL in test [2] (Table 2, DBMAL 12.5 mg/l alone, read-out: % Inhibition of growth by DBMAL) amounted to 98%; in test [2] (Table 6, DBMAL 12.5 mg/l alone, read-out: % Inhibition of growth by DBMAL) it was 100%; in test [2] (Table 8, DBMAL 12.5 mg/l alone, read-out: % Inhibition of growth by DBMAL) it was 100%; in test [2] (Table 10, DBMAL 12.5 mg/l alone, read-out: % Inhibition of growth by DBMAL) it was 100%; in test [2] (Table 12, DBMAL 12.5 mg/l alone, read-out: % Inhibition of growth by DBMAL), 100%; in test [2] (Table 14, DBMAL 12.5 mg/l alone, read-out: % Inhibition of growth by DBMAL), 93%. The inhibition at 25 µg/mL in test [2] (Table 4, DBMAL 25.0 mg/l alone, read-out: % Inhibition of growth by DBMAL) is 100%; in test [2] (Table 6, DBMAL 25.0 mg/l alone, read-out: % Inhibition of growth by DBMAL) it was 100%; in test [2] (Table 8, DBMAL 25.0 mg/l alone, read-out: % Inhibition of growth by DBMAL), 99%; in test [2] (Table 10, DBMAL 25.0 mg/l alone, read-out: % Inhibition of growth by DBMAL), 100%; in test [2] (Table 12, DBMAL 25.0 mg/l alone, read-out: % Inhibition of growth by DBMAL) it was 100%; in test [2] (Table 14, DBMAL 25.0 mg/l alone, read-out: % Inhibition of growth by DBMAL), 100%.

For the compound `Cn1sc2ccccc2c1=O` [MBIT, N-methyl-1,2-benzisothiazolin-3-one], the “% Inhibition of growth by MBIT” value in test [1] (MBIT 0.78 mg/l alone) turned out to be 16%; in test [1] (MBIT 1.56 mg/l alone) it was 13%; in test [1] (MBIT 6.25 mg/l alone), 26%; in test [1] (MBIT 12.5 mg/l alone), 53%; in test [1] (MBIT 25.0 mg/l alone), 23%; in test [1] (MBIT 50.0 mg/l alone), 67%. Also, the “I90 value (minimum concentration in which growth of the consortium is at least 90% less than controls)” value in test [1] is 100.0 mg/L.

With `Cn1sccc1=O` [MIT, 2-methyl-4-isothiazolin-3-one], the “I90 value (minimum concentration in which growth of the consortium is at least 90% less than controls)” value in test [1] came to 25 mg/L. Besides, the inhibition at […] in test [2] (MIT 0.19 mg/l alone) was 0%. Further, the inhibition at 0.39 µg/mL in test [2] (MIT 0.39 mg/l alone, read-out: % Inhibition of growth by MIT) came to 0%. The inhibition at 0.78 µg/mL in test [2] (MIT 0.78 mg/l alone, read-out: % Inhibition of growth by MIT) was 0%. Also, the inhibition at 1.56 µg/mL in test [2] (MIT 1.56 mg/l alone, read-out: % Inhibition of growth by MIT) came to 6%. In test [2] (MIT 3.13 mg/l alone, read-out: % Inhibition of growth by MIT), the inhibition at 3.13 µg/mL amounted to 6%. In addition, the inhibition at 6.25 µg/mL in test [2] (MIT 6.25 mg/l alone, read-out: % Inhibition of growth by MIT) came to 16%. Further, the inhibition at 12.5 µg/mL in test [2] (MIT 12.5 mg/l alone, read-out: % Inhibition of growth by MIT) amounted to 38%. Moreover, the inhibition at 25 µg/mL in test [2] (MIT 25.0 mg/l alone, read-out: % Inhibition of growth by MIT) was 96%.

For `CCCCCCCCn1sccc1=O` [OIT, 2-n-octyl-4-isothiazolin-3-one], the “I90 value (minimum concentration in which growth of the consortium is at least 90% less than controls)” value in test [1] came to 125 mg/L. Also, the inhibition at 3.91 µg/mL in test [2] (OIT 3.91 mg/l alone) was 0%. The inhibition at 7.81 µg/mL in test [2] (OIT 7.81 mg/l alone) stood at 7%. Further, in test [2] (OIT 15.63 mg/l alone), the inhibition at 15.63 µg/mL amounted to 24%. The inhibition at 31.25 µg/mL in test [2] (OIT 31.25 mg/l alone) was determined as 43%. Also, the inhibition at 62.5 µg/mL in test [2] (OIT 62.5 mg/l alone) was determined as 64%. Also, in test [2] (OIT 125.0 mg/l alone), the inhibition at 125 µg/mL is 100%. Also, the inhibition at 250 µg/mL in test [2] (OIT 250.0 mg/l alone) turned out to be 100%. Besides, the inhibition at 500 µg/mL in test [2] (OIT 500.0 mg/l alone) turned out to be 100%.

The term inhibition denotes the relative decrease from the control value, in per cent.

These data come from patent US8754130B2, “Compositions of dibromomalonamide and their use as biocides” (Dow Global Technologies LLC, priority 2009, dated 2014).
